The target in test [1] is T1, human histamine H1 receptor (Homo sapiens, UniProt P35367). Put plainly: Evaluation of Human H1 Receptor Function (GeneBLAzer H1-NFAT-bla HEK 293T cells). The class given is cell-based. The settings on record: histamine 30 nM, read-out: Evaluation of H1 Receptor Function (IC50 value, antagonistic effect). As for the experimental part: Test Example 3: Evaluation of Human H1 Receptor Function
The antagonistic effect was evaluated by the method described below. GeneBLAzer® H1-NFAT-bla HEK 293T-cells (Invitrogen Corporation, recombinant cells expressing the human histamine H1 receptor) were incubated at 37° C. for 30 minutes in the presence of the test compounds dissolved in DMSO in a high glucose Dulbecco's Modified Eagle Medium (GlutaMAX, containing 10% fetal bovine serum, 100 μM nonessential amino acids, 25 mM HEPES, 100 U/mL penicillin, and 100 μg/mL streptomycin), and histamine was added such that the final concentration became 30 nM, followed by further incubation for 4.5 hours. Then, a mixture of LiveBLAzer™ FRET-B/G Loading Kit (Invitrogen Corporation) and Solution D (Invitrogen Corporation) was added, followed by leaving to stand at room temperature for 2 hours under shaded conditions. Thereafter, the fluorescence intensity was measured under two conditions of 400 nm/460 nm and 400 nm/535 nm (excitation light/fluorescence) by using a multilabel counter (EnVision: PerkinElmer Inc.). The 50% inhibitory concentration (IC50 value) was calculated in accordance with (measured value−blank measured value at 400 nm/460 nm)/(measured value−blank measured value at 400 nm/535 nm) of each test sample.

The target in test [2] is T2, human histamine H4 receptor (Homo sapiens, UniProt Q9H3N8).
T2 construct: purchased PerkinElmer Inc; host or cells: CHO-K1
Briefly: Evaluation of H4 Receptor Function ([35S]GTPγS binding). The class given is biochemical. Conditions: [35S]GTPγS binding, CHO-K1 membrane, 0.1 μM histamine; read-out: Evaluation of H4 Receptor Function (IC50 value, antagonistic effect). As for the experimental part: The antagonistic effect was evaluated by the method described below. Membrane preparation from recombinant CHO-K1 cell expressing the human histamine H4 receptor (PerkinElmer Inc.), 10 μM GDP, 0.1 μM histamine, and the compounds dissolved in DMSO were reacted at 30° C. for 20 minutes in a buffering solution containing 20 mM HEPES, pH 7.4, 100 mM NaCl, 10 mM MgCl2, 1 mM DTT, and 1 mM EDTA on an assay plate. Thereafter, SPA beads (Amersham plc) were added, followed by incubation for 60 minutes, and further 0.3 nM [^35S]GTPγS (PerkinElmer Inc.) was added, followed by incubation for 30 minutes.

The target of test [3] is T2, human histamine H4 receptor. Put plainly: Evaluation of Human H4 Receptor Affinity ([3H]histamine binding). Conditions: inhibition constant Ki, CHO-K1 membrane preparation, read-out: Evaluation of H4 Receptor Affinity. In short, it runs like this:
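Radioligand displacement: compound competes with 8.2 nM [3H]histamine at recombinant human H4 receptor in CHO-K1 membranes (Tris-HCl 50 mM pH 7.4, EDTA 1.25 mM; 25 °C, 90 min), with filter-bound radioactivity counted. IC50 was converted to Ki via Cheng-Prusoff (Kd 5.7 nM); 1.0 μM histamine set nonspecific binding.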

In test [4] the target is T1, human histamine H1 receptor. Put plainly: Evaluation of Human H1 Receptor Affinity ([3H]pyrilamine binding). Conditions: inhibition constant Ki, CHO-K1 membrane preparation. Further details: purchased PerkinElmer Inc; host or cells: CHO-K1. The procedure, abridged:
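Ki values are Cheng-Prusoff conversions of IC50 (Kd 1.1 nM) from radioligand displacement of 1.2 nM [3H]pyrilamine, with 1.0 μM pyrilamine defining nonspecific binding.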

T2 sequence (Q9H3N8 whole entry): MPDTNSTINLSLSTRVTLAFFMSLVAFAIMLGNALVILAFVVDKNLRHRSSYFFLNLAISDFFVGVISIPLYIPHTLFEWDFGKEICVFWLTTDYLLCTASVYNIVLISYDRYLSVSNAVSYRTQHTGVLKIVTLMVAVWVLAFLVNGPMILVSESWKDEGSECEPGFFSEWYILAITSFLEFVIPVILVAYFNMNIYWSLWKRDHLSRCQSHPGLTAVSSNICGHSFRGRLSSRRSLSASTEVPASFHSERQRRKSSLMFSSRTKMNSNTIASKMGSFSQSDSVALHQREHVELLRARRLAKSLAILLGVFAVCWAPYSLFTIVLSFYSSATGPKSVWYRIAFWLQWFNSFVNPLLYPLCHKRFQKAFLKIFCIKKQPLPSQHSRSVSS
T1 sequence (P35367 whole entry): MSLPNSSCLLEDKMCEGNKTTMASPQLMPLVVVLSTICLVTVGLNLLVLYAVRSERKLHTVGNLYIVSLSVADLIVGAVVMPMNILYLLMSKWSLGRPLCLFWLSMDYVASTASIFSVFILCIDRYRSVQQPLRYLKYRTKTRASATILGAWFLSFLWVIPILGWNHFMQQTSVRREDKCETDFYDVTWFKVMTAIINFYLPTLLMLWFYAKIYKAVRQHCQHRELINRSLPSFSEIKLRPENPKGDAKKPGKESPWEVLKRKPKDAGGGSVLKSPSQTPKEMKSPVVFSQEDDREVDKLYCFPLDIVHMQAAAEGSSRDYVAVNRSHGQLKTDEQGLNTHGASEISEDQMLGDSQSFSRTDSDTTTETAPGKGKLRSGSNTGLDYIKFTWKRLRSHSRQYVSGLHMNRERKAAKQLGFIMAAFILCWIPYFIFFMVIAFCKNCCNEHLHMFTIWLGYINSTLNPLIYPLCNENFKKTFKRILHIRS

In general, IC50 refers to the concentration needed to halve the response being measured. For `Nc1nc2c(c(N3CCN(CCOCCOCC(=O)O)CC3)n1)CCc1cc(OCc3ccc(Cl)cc3)ccc1-2` [11(b), 2-(2-(2-(4-(2-amino-8-((4-chlorobenzyl)oxy)-5,6-dihydrobenzo[h]quinazolin-4-yl)piperazin-1-yl)ethoxy)ethoxy)acetic Acid], the IC50 in test [1] was below 200 nM; in test [2] it was 200 to 2000 nM. In addition, the Ki in test [3] and in test [4] was below 100 nM throughout.

Turning to `Nc1nc2c(c(N3CCN(CCOCc4cccc(C(=O)O)c4)CC3)n1)CCc1cc(OCc3ccc(Cl)cc3)ccc1-2` [15(b), 3-((2-(4-(2-amino-8-((4-chlorobenzyl)oxy)-5,6-dihydrobenzo[h]quinazolin-4-yl)piperazin-1-yl)ethoxy)methyl)benzoic acid], the IC50 was below 200 nM in test [1] and 200 to 2000 nM in test [2]. Also, the Ki in test [3] and in test [4] was below 100 nM in each case.

For the compound `Nc1nc2c(c(N3CCN(CCOCc4cccc(C(=O)O)c4)CC3)n1)CCc1cc(OCc3ccc(OC(F)(F)F)cc3)ccc1-2` [16(b), 3-((2-(4-(2-amino-8-((4-(trifluoromethoxy)benzyl)oxy)-5,6-dihydrobenzo[h]quinazolin-4-yl)piperazin-1-yl)ethoxy)methyl)benzoic acid], the IC50 is below 200 nM in test [1] and 200 to 2000 nM in test [2]. For the same compound, the Ki in test [3] and in test [4] was below 100 nM each time.

`Nc1nc2c(c(N3CCN(CCOCc4ccc(F)c(C(=O)O)c4)CC3)n1)CCc1cc(OCc3ccc(Cl)cc3)ccc1-2` [17(b), 5-((2-(4-(2-amino-8-((4-chlorobenzyl)oxy)-5,6-dihydrobenzo[h]quinazolin-4-yl)piperazin-1-yl)ethoxy)methyl)-2-fluorobenzoic acid]: the IC50 in test [1] is below 200 nM; in test [2] it was 200 to 2000 nM. Further, the Ki in test [3] and in test [4] was below 100 nM throughout.

In the case of `Nc1nc2c(c(N3CCN(CCOCc4cccc(C(=O)O)n4)CC3)n1)CCc1cc(OCc3ccc(Cl)cc3)ccc1-2` [18(b), 6-((2-(4-(2-amino-8-((4-chlorobenzyl)oxy)-5,6-dihydrobenzo[h]quinazolin-4-yl)piperazin-1-yl)ethoxy)methyl)picolinic acid bis(trifluoroacetate)], the IC50 was below 200 nM in test [1] and 200 to 2000 nM in test [2]. For the same compound, the Ki in test [3] and in test [4] was below 100 nM throughout.

Consider `Nc1nc2c(c(N3CCN(CCOc4ccc(C(=O)O)cc4)CC3)n1)CCc1cc(OCc3ccc(Cl)cc3)ccc1-2` [19(b), 4-(2-(4-(2-amino-8-((4-chlorobenzyl)oxy)-5,6-dihydrobenzo[h]quinazolin-4-yl)piperazin-1-yl)ethoxy)benzoic acid], for which the IC50 in test [1] was 200 to 2000 nM; in test [2], below 200 nM. For the same compound, the Ki in test [3] is below 100 nM; in test [4], 100 to 500 nM.

Consider `Nc1nc2c(c(N3CCN(CCOCc4ccc(C(=O)O)o4)CC3)n1)CCc1cc(OCc3ccc(OC(F)(F)F)cc3)ccc1-2` [20(b), 5-((2-(4-(2-amino-8-((4-(trifluoromethoxy)benzyl)oxy)-5,6-dihydrobenzo[h]quinazolin-4-yl)piperazin-1-yl)ethoxy)methyl)furan-2-carboxylic acid], for which the figures for the IC50 in test [1] and in test [2] were below 200 nM and 200 to 2000 nM, respectively. Besides, the Ki in test [3] and in test [4] was below 100 nM throughout.

For the compound `Nc1nc2c(c(N3CCN(CCO[C@H]4C[C@@H](C(=O)O)C4)CC3)n1)CCc1cc(OCc3ccc(OC(F)(F)F)cc3)ccc1-2` [23(b), cis-3-(2-(4-(2-amino-8-((4-(trifluoromethoxy)benzyl)oxy)-5,6-dihydrobenzo[h]quinazolin-4-yl)piperazin-1-yl)ethoxy)cyclobutane-1-carboxylic acid], the IC50 in test [1] and in test [2] was below 200 nM each time. Besides, the Ki in test [3] and in test [4] was below 100 nM in each case.

`CN1CCN(c2nc(N)nc3c2CCOc2cc(OCc4ccccc4)ccc2-3)CC1` [Example 204, 9-(benzyloxy)-4-(4-methylpiperazin-1-yl)-5,6-dihydrobenzo[2,3]oxepino[4,5-d]pyrimidin-2-amine]: the Ki in test [3] and in test [4] was below 100 nM throughout.

For `Nc1nc2c(c(N3CCN(CCO[C@H]4C[C@@H](C(=O)O)C4)CC3)n1)CCc1cc(OCc3ccc(OC(F)(F)F)cc3F)ccc1-2` [Example 205, cis-3-(2-(4-(2-amino-8-((2-fluoro-4-(trifluoromethoxy)benzyl)oxy)-5,6-dihydrobenzo[h]quinazolin-4-yl)piperazin-1-yl)ethoxy)cyclobutane-1-carboxylic acid], the Ki in test [3] and in test [4] was below 100 nM throughout.

Take `Nc1nc2c(c(N3CCN(CCO[C@H]4C[C@@H](C(=O)O)C4)CC3)n1)CCc1cc(OCc3ccc(OC(F)(F)F)c(F)c3)ccc1-2` [Example 206, cis-3-(2-(4-(2-amino-8-((3-fluoro-4-(trifluoromethoxy)benzyl)oxy)-5,6-dihydrobenzo[h]quinazolin-4-yl)piperazin-1-yl)ethoxy)cyclobutane-1-carboxylic acid]: the Ki in test [3] and in test [4] was below 100 nM each time.

Turning to `COc1cc(OC(F)(F)F)ccc1COc1ccc2c(c1)CCc1c-2nc(N)nc1N1CCN(CCO[C@H]2C[C@@H](C(=O)O)C2)CC1` [Example 207, cis-3-(2-(4-(2-amino-8-((2-methoxy-4-(trifluoromethoxy)benzyl)oxy)-5,6-dihydrobenzo[h]quinazolin-4-yl)piperazin-1-yl)ethoxy)cyclobutane-1-carboxylic acid], the Ki in test [3] and in test [4] was below 100 nM each time.

In the case of `Cc1cc(OC(F)(F)F)ccc1COc1ccc2c(c1)CCc1c-2nc(N)nc1N1CCN(CCO[C@H]2C[C@@H](C(=O)O)C2)CC1` [Example 208, cis-3-(2-(4-(2-amino-8-((2-methyl-4-(trifluoromethoxy)benzyl)oxy)-5,6-dihydrobenzo[h]quinazolin-4-yl)piperazin-1-yl)ethoxy)cyclobutane-1-carboxylic acid], the Ki in test [3] and in test [4] was below 100 nM throughout.

In the case of `Nc1nc2c(c(N3CCN(CCO[C@H]4C[C@@H](C(=O)O)C4)CC3)n1)CCc1cc(OCc3ccc(OC(F)F)cc3)ccc1-2` [Example 210, cis-3-(2-(4-(2-amino-8-((4-(difluoromethoxy)benzyl)oxy)-5,6-dihydrobenzo[h]quinazolin-4-yl)piperazin-1-yl)ethoxy)cyclobutane-1-carboxylic acid], the Ki in test [3] and in test [4] was below 100 nM each time.

Regarding `Nc1nc2c(c(N3CCN(CCO[C@H]4C[C@@H](C(=O)O)C4)CC3)n1)CCc1cc(OCc3ccc(SC(F)(F)F)cc3)ccc1-2` [Example 211], the Ki in test [3] and in test [4] was below 100 nM throughout.

As for `Nc1nc2c(c(N3CCN(CCO[C@H]4C[C@@H](C(=O)O)C4)CC3)n1)CCc1cc(OCc3ccc(S(=O)(=O)C(F)(F)F)cc3)ccc1-2` [Example 212, cis-3-(2-(4-(2-amino-8-((4-((trifluoromethyl)sulfonyl)benzyl)oxy)-5,6-dihydrobenzo[h]quinazolin-4-yl)piperazin-1-yl)ethoxy)cyclobutane-l-carboxylic acid], the Ki in test [3] and in test [4] was below 100 nM throughout.

On to “cis-3-(2-(4-(2-amino-8-((4-((trifluoromethyl)cyclohexyl)methoxy)-5,6-dihydrobenzo[h]quinazolin-4-yl)piperazin-1-yl)ethoxy)cyclobutane-l-carboxylic acid [Example 215]”, for which the Ki was 100 to 500 nM in test [3] and below 100 nM in test [4].

Take “cis-3-(2-(4-(2-amino-8-((4-cyclopropylbenzyl)oxy)-5,6-dihydrobenzo[h]quinazolin-4-yl)piperazin-1-yl)ethoxy)cyclobutane-l-carboxylic acid [Example 214]”: the Ki in test [3] and in test [4] was below 100 nM each time.

For the compound “trans-4-((2-(4-(2-amino-8-((4-cyanobenzyl)oxy)-5,6-dihydrobenzo[h]quinazolin-4-yl)piperazin-1-yl)ethoxy)cyclohexane-l-carboxylic acid [Example 213]”, the Ki was 100 to 500 nM in test [3] and below 100 nM in test [4].
